This data set can be described thus: Binding energy by using the equation deltaG obsd = -RT ln KD. In kind it is ADME.

With `O=C(O)COP(=O)(O)O` [PHOSPHOGLYCOLIC ACID], the Binding energy amounted to 8.7 kcal/mol.

For `CNCCCN1c2ccccc2CCc2ccccc21` [DESIPRAMINE], the Binding energy was 12.2 kcal/mol.

As to `Cc1c(O)oc2ccccc2c1=O`, the Binding energy is 7 kcal/mol.

Consider `O=P(O)(O)OC[C@H]1O[C@](O)(CO)[C@@H](O)[C@@H]1O`, for which the Binding energy turned out to be 5.7 kcal/mol.

As to `COC(=O)C1=CCCN(C)C1` [ARECOLINE], the Binding energy stood at 7.2 kcal/mol.

In turn, `Cc1csc(Cl)c1NC1=NCCN1` [TIAMENIDINE] came in with a Binding energy of 11.8 kcal/mol.

The compound `NCCCC(=O)O` [GAMMA-AMINOBUTYRIC ACID] showed a Binding energy of 10.9 kcal/mol.

In turn, `Cc1cc(C(C)(C)C)c(O)c(C)c1CC1=NCCN1` [OXYMETAZOLINE] yielded a Binding energy of 12.2 kcal/mol.

Take `c1ccc2c(CC3=NCCN3)cccc2c1` [NAPHAZOLINE]: the Binding energy stood at 11.9 kcal/mol.

For `CC(=O)[C@H]1CC[C@H]2[C@@H]3CCC4=CC(=O)CC[C@]4(C)[C@H]3CC[C@]12C` [PROGESTERONE], the Binding energy came to 10.5 kcal/mol.

The compound `Cc1ccc(N(CC2=NCCN2)c2cccc(O)c2)cc1` [PHENTOLAMINE] gave a Binding energy of 11.9 kcal/mol.

Compound `CN1CCN2c3ccccc3Cc3ccccc3C2C1` (stereo not given) [MIANSERIN] displayed a Binding energy of 12.5 kcal/mol.

`O=C(O)C(=O)O` [OXALIC ACID]: the Binding energy worked out at 7.8 kcal/mol.

`OC1(c2ccc(Cl)c(C(F)(F)F)c2)CCN(CCCC(c2ccc(F)cc2)c2ccc(F)cc2)CC1` [PENFLURIDOL] registered a Binding energy of 9.9 kcal/mol.

`O=C(CCCN1CCC2(CC1)C(=O)NCN2c1ccccc1)c1ccc(F)cc1` [SPIPERONE] came in with a Binding energy of 14 kcal/mol.

The compound `C=CCc1ccccc1OCC(O)CNC(C)C` (stereo not given) [ALPRENOLOL] returned a Binding energy of 12.9 kcal/mol.

In turn, `CN1CCC(=C2c3ccccc3Oc3ccc(Cl)cc32)CC1` [CLOPIPAZAN] showed a Binding energy of 12.8 kcal/mol.

Turning to `OC[C@H]1O[C@@H](n2cnc3c2N=CNC[C@H]3O)[C@H](O)[C@@H]1O` [COFORMYCIN], the Binding energy came out at 15 kcal/mol.

`CN1[C@@H]2CC[C@H]1C[C@@H](OC(=O)C(CO)c1ccccc1)C2` (stereo not given in full) [ATROPINE]: the Binding energy worked out at 12.8 kcal/mol.

As to `C[C@]12C[C@H](O)[C@H]3[C@@H](CCC4=CC(=O)CC[C@@]43C)[C@@H]1CC[C@@H]2C(=O)CO` [CORTICOSTERONE], the Binding energy was 11.6 kcal/mol.

The compound `O=c1[nH]c(=O)c2c[nH]nc2[nH]1` [OXYPURINOL] came in with a Binding energy of 12.6 kcal/mol.

As to `CN1CCC[C@H]1c1cccnc1` [NICOTINE], the Binding energy amounted to 11.2 kcal/mol.

`CN1CCN(C2=Nc3cc(Cl)ccc3Nc3ccccc32)CC1` [CLOZAPINE]: the Binding energy came out at 12.3 kcal/mol.

Turning to `Clc1cccc(Cl)c1N=C1NCCN1` [CLONIDINE], the Binding energy was found to be 12.3 kcal/mol.

For the compound `Nc1ccn([C@@H]2O[C@H](COP(=O)(O)O)[C@@H](O)[C@H]2O)c(=O)n1`, the Binding energy came to 5.9 kcal/mol.

For the compound `N=C(N)NC(=O)Cc1c(Cl)cccc1Cl` [GUANFACINE], the Binding energy is 11.9 kcal/mol.

For `CC/C(=C(\c1ccccc1)c1ccc(OCCN(C)C)cc1)c1ccccc1` [TAMOXIFEN], the Binding energy came out at 12.3 kcal/mol.

Compound `COc1cccc(OC)c1OCCNCC1COc2ccccc2O1` (stereo not given) yielded a Binding energy of 12.9 kcal/mol.

Consider `CO[C@]12CC[C@@]3(C[C@@H]1[C@](C)(O)C(C)(C)C)[C@H]1Cc4ccc(O)c5c4[C@@]3(CCN1CC1CC1)[C@H]2O5` [BUPRENORPHINE], for which the Binding energy was 13.4 kcal/mol.

`N[C@@H](Cc1cc(I)c(Oc2cc(I)c(O)c(I)c2)c(I)c1)C(=O)O` [LEVOTHYROXINE] came in with a Binding energy of 10.3 kcal/mol.

These data come from ChEMBL document CHEMBL1122538, “Functional group contributions to drug-receptor interactions” (J Med Chem, 1984).
